# System: BY-2 cells
# Test: Cell penetration efficiency into BY-2 suspension culture cells (CLSM of TAMRA-labeled CPP)
# Details: negative control without CPP, 15 min, 1 h, 3 h and 6 h at 26 °C, BY-2 cells 3 days after subculture
# Experimental: To evaluate the cell penetration efficiency of the 55 CPPs into BY-2 suspension culture cells, we first optimized the CPP concentration and cell density using BP100 as a model CPP. The cell penetration efficiency of CPP into BY-2 cells was determined based on the ratio of numbers of cell with and without TAMRA signals of CPP by confocal laser scanning microscopy (CLSM) (Fig. 2). […] Thus, we used the BY-2 cells at 3 days after subculture as well as the incubation time of 3 hours for all the experiments in this study.
# Suspension-cultured tobacco (Nicotiana tabacum) cv. BY-2 cells were provided by the RIKEN Bio Resource Center. […]
# The penetration efficiency of CPPs into BY-2 suspension cells and young true leaves of N. benthamiana, A. thaliana, Moneymaker tomato, O. sativa Nipponbare, and poplar, and O. sativa callus was determined using confocal laser scanning microscopy (CLSM, ZeissLSM 700, Carl Zeiss, Oberkochen, Germany). The intracellular localization of TAMRA-labeled CPP was observed using excitation at 555 nm for the detection of TAMRA fluorescence. The total number of cells was counted using differential interfering contrast images. The efficiency was determined as follows: Cellpenetrationefficiency(%)=(thenumberofstainedcells)/(thenumberoftotalcells)×100 Various BY-2 cell concentrations (230 to >1000 cells/µL) of BY-2 cells were tested to determine the optimal cell concentration. […]
compound,measurement,value
"CN(C)c1ccc2c(-c3ccc(C(=O)O)cc3C(=O)[O-])c3ccc(N(C)C)cc3[o+]c2c1 [TAMRA, 5-carboxytetramethylrhodamine]",Penetration of TAMRA alone into BY-2 cells,could not penetrate
